From patent publication US20240158418A1 (C4 Therapeutics, Inc., priority 2021, published 2024) come the findings set out here.

The target in one assay is T1, EGFR WT (Homo sapiens, UniProt P00533).
T1 construct: A431 (harboring EGFR wildtype) was purchased from ATCC; host or cells: A431
As to the kind of experiment: EGFR degradation, Total EGFR (pan-EGFR) HTRF, A431. The format is cell-based. The conditions noted are these: A431 (wild-type), 6 hours; read-out: tEGFR DC50. An excerpt:
NCI-H1975 (harboring EGFR heterozygous L858R-T790M mutations) and NCI-H3255 (harboring EGFR heterozygous L858R mutation) were purchased from ATCC and NCI, respectively. NCI-H1975+CS (harboring EGFR heterozygous L858R-T790M-C797S mutations) was generated using CRISPR technology to introduce the additional C797S mutation by Horizon Discovery. A431 (harboring EGFR wildtype) was purchased from ATCC. RPMI 1640 no-phenol red medium and fetal bovine serum (FBS) were purchased from Gibco (Grand Island, NY, USA). Cell culture flasks and 384-well microplates were acquired from VWR (Radnor, PA, USA). Phosphorylated (pY1068) EGFR and Total EGFR (using L858R-specific detection antibody and pan-EGFR antibody for EGFR mutant cell lines and EGFR wild-type cell lines, respectively) HTRF assay kits were purchased from Cisbio (Bedford, MA, USA).
Degradation of EGFR protein containing L858R mutation or wild-type was determined based on quantification of FRET signal using a Total EGFR (L858R-specific or pan-EGFR detecting) HTRF assay kit. Phospho-EGFR (pEGFR) inhibition was determined based on quantification of FRET signal using a pY1068 EGFR HTRF assay kit. In separate assay plates, test compounds were added to the 384-well plate from a top concentration of 10 μM with 11 points, half log titration in duplicates. For each assay, 12.5 uL of cells suspended in assay media (RPMI 1640 no-phenol red medium+10% FBS) at cell densities indicated for each cell line in Table 8 below were dispensed using a multi-channel pipette to 384-well low volume white HTRF microplates containing a duplicate concentration range of test compounds and DMSO controls. The plates were kept at 37° C. with 5% CO2 for 6 hours and then incubated with either phospho EGFR or Total EGFR HTRF detection antibodies according to the cell line and EGFR mutant being assayed. Cells treated in the absence of the test compound were the negative control. Positive control was set by wells containing all reagents but no cells. FRET signal was acquired on EnVision™ Multilabel Reader (PerkinElmer, Santa Clara, CA, USA). Compound concentration that achieves 50% degradation and inhibition was reported as DC50 and IC50, respectively.
On the technique in general: In TR-FRET formats the signal depends on donor and acceptor labels being close together.

The test system of assay [1] is engineered triple mutant EGFR (L858R-T790M-C797S) BaF3 tumors. Nature of the assay: BaF3 triple mutant EGFR allograft efficacy. The format is in vivo, female BALB/c nude mice. The following applies: for efficacy on BaF3 tumor volume: Compound 1 or 2 at 20, 50, 100 mg/kg/day PO BID, osimertinib 25 mg/kg/day PO QD, 14 days. As to the method: Each Compound was administered BID (twice a day) orally (PO).
Tumor volume was measured twice weekly in two dimensions using calipers, and volume (mm^3) was calculated using the formula: V=0.5 a×b^2 where a and b are the long and short diameters of the tumor in mm, respectively. […] Treatment began on Day 0 with established subcutaneous BaF3 tumors with a mean tumor volume (MTV) of 108 mm^3.
Body weight and MTV were measured on a 2× weekly schedule. Statistical analysis was performed using a one-way ANOVA followed by Dunnett's multiple comparison test. Data are expressed as MTV±SEM.

Assay [2] has as its system BaF3 cells expressing EGFR L858R-T790M-L792H. Nature of the assay: Ba/F3 EGFR cell viability (CellTiter-Glo), L858R-T790M-L792H. The assay is classed as cell-based. The conditions noted are these: Mus musculus, read-out: CTGlo (GI50). An excerpt:
(§1) RPMI 1640 media, cell culture flasks, and 384-well microplates were purchased from VWR (Radnor, PA, USA). Fetal bovine serum (FBS) was purchased from Life Technologies (Carlsbad, CA, USA) and CellTiter-Glo® was purchased from Promega (Madison, WI, USA). The Ba/F3 parental cell line was purchased from CrownBio (Santa Clara, CA). BaF3 cell lines ectopically expressing the EGFR mutations L858R, L858R-T790M, L858R-C797S, and L858R-T790M-C797S were purchased from CrownBio and EGFR mutations L858R-L718Q, L858R-T790M-L718Q, L858R-L792H, and L858R-T790M-L792H, were purchased from Signosis (Santa Clara, CA).
(§2) Cell viability was assessed based on the quantification of ATP using the CellTiter-Glo® assay (Promega, Madison, WI, USA). To determine the effect of compounds on cell viability, all Ba/F3 cell lines were plated at a cell density of 2000 cells/well in 384-well plates using RPMI 1640+10% FBS and treated with compounds of interest using a 10-point half-log dilution series in duplicate for 72 hours, with the highest dose set at […]. CellTiter-Glo® reagent was then added and luminescence signals were measured using an EnVision™ Multimode plate reader (Perkin Elmer, Santa Clara, CA). For data normalization, cells untreated with the test compounds at Time=72 hours were set to 100% (equivalent to maximal cell growth after 72 hours); cells untreated with the test compounds at Time=0 hours were set to 0% (equivalent to cytostasis); and media-only wells were set to −100% (equivalent to complete cytotoxicity). % Viability was determined by normalizing the signal with positive and DMSO treated negative controls on the same microtiter plate. The half-maximal inhibition of cell growth (GI50) is computed from where the fitted curve crosses 50% while the half-maximal lethal dose (LD50) is computed from where the fitted curve crosses −50%.
A general note: ATP-based viability assays read luminescence as a measure of living cells.

Assay [3] deals with BaF3 cells expressing EGFR L858R-C797S. Nature of the assay: Ba/F3 EGFR cell viability (CellTiter-Glo), L858R-C797S. The format is cell-based. The following applies: Mus musculus, read-out: CTGlo (GI50).
Description: as §1, §2

Another assay deals with T2, pY1068 EGFR L858R-T790M (Homo sapiens, UniProt P00533, L858R/T790M).
T2 construct: NCI-H1975 (harboring EGFR heterozygous L858R-T790M mutations); host or cells: NCI-H1975
As to the kind of experiment: Phospho-EGFR (pY1068) inhibition HTRF, NCI-H1975. The conditions noted are these: 6 hours, read-out: pEGFR IC50. The format is cell-based. Put shortly: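 Cells in RPMI 1640 no-phenol red + 10% FBS were treated with compound (top 10 μM, 11-point half-log, duplicates) for 6 h at 37 °C, 5% CO2. pY1068 or total EGFR (pan-EGFR antibody for A431) was quantified by HTRF; IC50 (phospho) or DC50 (total) reported.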

Assay [4] concerns BaF3 cells expressing EGFR L858R-T790M. Nature of the assay: Ba/F3 EGFR cell viability (CellTiter-Glo), L858R-T790M. The assay is classed as cell-based. The following applies: Mus musculus, read-out: CTGlo (GI50).
Description: as §1, §2

In assay [5] the test system is BaF3 cells expressing EGFR L858R-L792H. As to the kind of experiment: Ba/F3 EGFR cell viability (CellTiter-Glo), L858R-L792H. The following applies: Mus musculus, read-out: CTGlo (GI50). The assay is classed as cell-based.
Description: as §1, §2

T1 sequence (P00533 25-1210): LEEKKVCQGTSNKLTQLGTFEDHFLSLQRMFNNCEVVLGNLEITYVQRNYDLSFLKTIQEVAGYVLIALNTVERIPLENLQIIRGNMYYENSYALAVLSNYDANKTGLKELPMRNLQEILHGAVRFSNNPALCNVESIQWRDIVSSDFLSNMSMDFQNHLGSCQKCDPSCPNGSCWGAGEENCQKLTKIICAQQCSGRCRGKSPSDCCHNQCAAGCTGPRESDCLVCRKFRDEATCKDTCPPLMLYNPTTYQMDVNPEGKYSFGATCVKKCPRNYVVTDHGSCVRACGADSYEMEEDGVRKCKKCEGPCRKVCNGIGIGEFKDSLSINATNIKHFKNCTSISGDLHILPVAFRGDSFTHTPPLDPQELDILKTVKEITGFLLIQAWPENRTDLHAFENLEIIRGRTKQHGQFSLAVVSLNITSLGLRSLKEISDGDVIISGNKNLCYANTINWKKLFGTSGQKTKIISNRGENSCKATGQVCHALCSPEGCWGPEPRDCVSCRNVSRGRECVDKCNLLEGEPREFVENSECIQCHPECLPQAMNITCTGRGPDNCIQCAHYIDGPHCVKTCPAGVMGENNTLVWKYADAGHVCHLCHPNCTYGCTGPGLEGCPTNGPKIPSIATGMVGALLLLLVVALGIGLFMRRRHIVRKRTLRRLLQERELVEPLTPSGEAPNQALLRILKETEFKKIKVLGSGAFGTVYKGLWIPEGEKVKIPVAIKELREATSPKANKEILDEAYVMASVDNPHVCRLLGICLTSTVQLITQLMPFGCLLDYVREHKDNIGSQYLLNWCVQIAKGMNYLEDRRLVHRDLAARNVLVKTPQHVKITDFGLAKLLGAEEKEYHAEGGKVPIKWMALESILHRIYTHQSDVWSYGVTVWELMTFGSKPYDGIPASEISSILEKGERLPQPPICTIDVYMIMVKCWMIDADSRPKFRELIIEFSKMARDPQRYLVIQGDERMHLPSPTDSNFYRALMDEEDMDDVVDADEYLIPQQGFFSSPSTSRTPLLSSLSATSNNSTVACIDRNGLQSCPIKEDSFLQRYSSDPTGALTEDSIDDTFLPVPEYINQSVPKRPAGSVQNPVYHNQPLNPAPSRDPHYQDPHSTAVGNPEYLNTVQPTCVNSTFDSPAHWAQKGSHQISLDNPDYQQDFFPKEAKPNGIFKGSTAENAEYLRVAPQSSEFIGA
T2 sequence (P00533 25-1210 T790M/L858R): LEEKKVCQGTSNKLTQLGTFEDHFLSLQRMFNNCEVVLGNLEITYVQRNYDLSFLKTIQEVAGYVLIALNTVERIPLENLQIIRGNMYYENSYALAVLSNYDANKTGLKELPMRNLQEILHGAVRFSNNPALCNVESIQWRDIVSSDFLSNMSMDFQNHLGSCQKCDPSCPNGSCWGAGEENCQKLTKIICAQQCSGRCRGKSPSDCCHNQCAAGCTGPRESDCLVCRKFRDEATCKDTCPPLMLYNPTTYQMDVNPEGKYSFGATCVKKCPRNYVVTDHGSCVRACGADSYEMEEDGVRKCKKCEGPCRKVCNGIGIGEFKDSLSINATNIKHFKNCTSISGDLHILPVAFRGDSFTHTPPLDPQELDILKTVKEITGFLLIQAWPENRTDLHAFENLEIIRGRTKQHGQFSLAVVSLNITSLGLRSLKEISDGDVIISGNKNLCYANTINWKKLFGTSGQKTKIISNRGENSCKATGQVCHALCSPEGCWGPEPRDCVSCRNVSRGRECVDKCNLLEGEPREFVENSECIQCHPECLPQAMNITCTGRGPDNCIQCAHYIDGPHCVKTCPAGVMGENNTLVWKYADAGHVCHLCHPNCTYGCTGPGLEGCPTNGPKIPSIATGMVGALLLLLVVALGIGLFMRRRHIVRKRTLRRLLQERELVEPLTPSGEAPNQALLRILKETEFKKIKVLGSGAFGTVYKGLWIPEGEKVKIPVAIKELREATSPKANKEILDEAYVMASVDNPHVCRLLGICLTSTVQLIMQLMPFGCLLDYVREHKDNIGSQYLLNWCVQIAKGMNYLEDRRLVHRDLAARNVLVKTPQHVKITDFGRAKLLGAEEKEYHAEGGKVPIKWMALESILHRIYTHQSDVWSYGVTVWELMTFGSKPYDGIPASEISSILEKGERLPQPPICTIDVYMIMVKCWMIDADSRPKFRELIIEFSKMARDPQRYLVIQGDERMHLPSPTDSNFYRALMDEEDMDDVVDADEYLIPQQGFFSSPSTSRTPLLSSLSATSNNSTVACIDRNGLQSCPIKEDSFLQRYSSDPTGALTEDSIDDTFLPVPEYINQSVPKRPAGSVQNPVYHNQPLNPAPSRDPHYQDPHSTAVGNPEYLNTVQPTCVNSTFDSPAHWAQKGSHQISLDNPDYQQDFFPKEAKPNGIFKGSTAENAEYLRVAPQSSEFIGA

What is called DC50 is the concentration giving 50% degradation. The GI50 is the concentration at which growth is held to half of that of the control. Broadly, the IC50 is the concentration needed to halve the response being measured. For the compound `O=C1CC[C@H](Nc2ccc(N3CCC(O)(CC(=O)N4CC5(C4)CN(c4ccc(-c6cc(F)c7c(c6)C(=O)N(C(C(=O)Nc6nccs6)c6ncn8c6CCC8)C7)cc4)C5)CC3)c(F)c2)C(=O)N1` (stereo partly drawn) [Compound 1, 2-(6,7-dihydro-5H-pyrrolo[1,2-c]imidazol-1-yl)-2-[6-[4-[2-[2-[1-[4-[[(3S)-2,6-dioxo-3-piperidyl]amino]-2-fluoro-phenyl]-4-hydroxy-4-piperidyl]acetyl]-2,6-diazaspiro[3.3]heptan-6-yl]phenyl]-4-fluoro-1-oxo-isoindolin-2-yl]-N-thiazol-2-yl-acetamide], the DC50 on EGFR WT was greater than 10000 nM. The same compound came in with a tumor regression in assay [1] (BaF3 EGFR-L858R-T790M-C797S allograft mouse model, oral dosing) of 60%. Besides, in assay [1], the “efficacy on BaF3 tumor volume” value was “reduced tumor volume”. Besides, the GI50 in assay [2] is 21 nM; in assay [3] it was 5 nM; in assay [4], 9 nM; in assay [5], 9 nM. Also, at pY1068 EGFR L858R-T790M, the IC50 is 9 nM.
In the case of `Cn1nc(N2CCC(=O)NC2=O)c2ccc([C@H]3CCN(CC(=O)N4CC5(C4)CN(c4ccc(-c6cc(F)c7c(c6)C(=O)N(C(C(=O)Nc6nccs6)c6ncn8c6CCC8)C7)cc4)C5)CC3(F)F)cc21` (stereo partly drawn) [Compound 2, 2-(6,7-dihydro-5H-pyrrolo[1,2-c]imidazol-1-yl)-2-[6-[4-[2-[2-[(4R)-4-[3-(2,4-dioxohexahydropyrimidin-1-yl)-1-methyl-indazol-6-yl]-3,3-difluoro-1-piperidyl]acetyl]-2,6-diazaspiro[3.3]heptan-6-yl]phenyl]-4-fluoro-1-oxo-isoindolin-2-yl]-N-thiazol-2-yl-acetamide], the DC50 on EGFR WT is greater than 10000 nM. In addition, the “efficacy on BaF3 tumor volume” value in assay [1] is listed as “reduced tumor volume”. The GI50 in assay [2] was 9 nM; in assay [3], 3 nM; in assay [4], 6 nM; in assay [5] it was 4 nM. Also, the IC50 on pY1068 EGFR L858R-T790M stood at 14 nM.
